Earlier results, collected in US20070213332A1, “Prodrugs Of Substituted Amino Heterobicycles Which Modulate The Function Of The Vanilloid-1 Receptor (Vr1)” (priority 2004, published 2007).

Target: VR1 (Rattus norvegicus, UniProt O35433)
Details: Walpole et al., J. Med. Chem., 37:1942, 1994

Sequence of VR1 (O35433 whole entry): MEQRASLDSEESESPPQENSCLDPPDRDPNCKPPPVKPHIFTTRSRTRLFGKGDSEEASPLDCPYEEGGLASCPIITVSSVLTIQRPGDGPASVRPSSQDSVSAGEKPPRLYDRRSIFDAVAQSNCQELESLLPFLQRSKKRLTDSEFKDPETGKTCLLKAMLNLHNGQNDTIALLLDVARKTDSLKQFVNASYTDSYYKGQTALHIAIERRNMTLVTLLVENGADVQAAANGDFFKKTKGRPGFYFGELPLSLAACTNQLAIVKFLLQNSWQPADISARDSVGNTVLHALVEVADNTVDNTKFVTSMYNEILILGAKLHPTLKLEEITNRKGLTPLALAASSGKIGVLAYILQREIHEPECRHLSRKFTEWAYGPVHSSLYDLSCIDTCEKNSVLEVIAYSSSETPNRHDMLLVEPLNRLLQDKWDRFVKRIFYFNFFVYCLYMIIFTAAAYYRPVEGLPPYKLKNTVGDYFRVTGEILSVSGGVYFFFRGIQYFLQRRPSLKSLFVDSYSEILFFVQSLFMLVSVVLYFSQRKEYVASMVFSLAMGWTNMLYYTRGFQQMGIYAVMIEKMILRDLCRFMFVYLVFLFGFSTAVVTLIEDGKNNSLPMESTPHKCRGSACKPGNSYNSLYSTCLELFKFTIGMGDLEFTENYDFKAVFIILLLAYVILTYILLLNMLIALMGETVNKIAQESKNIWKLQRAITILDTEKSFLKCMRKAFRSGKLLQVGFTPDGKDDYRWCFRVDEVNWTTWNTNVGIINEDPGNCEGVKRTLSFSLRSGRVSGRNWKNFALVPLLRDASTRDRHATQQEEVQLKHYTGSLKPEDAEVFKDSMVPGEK

IC50: 420 nM
Compound: Oc1cc2c(cc1O)CN(C(=S)NCCc1ccc(Cl)cc1)CCC2 [capsazepine]
